Measurements taken from patent publication US5494901A, “Topical compositions for the eye comprising a β-cyclodextrin derivative and a therapeutic agent” (priority 1993, dated 1996).
≈ marks a conversion by molar mass, not a printed value. Where a name gives a salt, the structure may show the parent alone. Read-outs that look alike come from different tables or passages of the source. Each block holds one molecule with its values, some of them ahead of it.

Tests used:
[1] = Maximum solubility and guest/host molar ratios in 45% hydroxypropyl-β-cyclodextrin (Example 6); format: physicochemical; conditions: for solubility: 45% hpbcd
Experimental: 45% (w/v) aqueous solutions of 2-hydroxypropyl-β-cyclodextrin using either source A or B (see Example 3) were prepared, and the maximum solubilities of phenoltetrabromphthalein and of cholesterol were determined per 5.0 ml of solution using standard techniques. Phenoltetrabromphthalein concentration was determined spectrophotometrically at 580 mμ. Cholesterol concentration was determined by both GLC and by liquid scintillation counting using cholesterol of known specific activity. The data are shown below, along with a summary of data from other examples.

[2] = cited from earlier work
intraocular pressure [3] = assay: Intraocular pressure after topical acetazolamide preparations, Perkins applanation tonometer (Example 2); format: in vivo, New Zealand white rabbits; conditions: 1% Na-acetazolamide in 0.9% NaCl, FIG. 1
Experimental: Solutions of 1% acetazolamide in 45% HPBCD and 1% Na-acetazolamide in 0.9% NaCl were applied to paired right and left eyes of 10 New Zealand white rabbits (the HPBCD is Type B of Example 3). Intraocular pressure was measured with a Perkins applanation tonometer at hourly intervals until all pressures returned to baseline. […] As a further control, the acetazolamide/HPBCD preparation was compared with 45% HPBCD alone (control).

[4] = with β-cyclodextrin at either 3% or 1.5%; topical; Grove et al.; cited from earlier work
[5] = tested on: anterior chamber of the eye; assay: Fluorescence in anterior chamber after topical Na-Fluorescein, slit lamp biomicroscope; format: in vivo, New Zealand white rabbit; conditions: 2% Na-Fluorescein in 0.9% saline; at one hour; rabbit
Experimental: Solutions of 2% Na-Fluorescein were prepared in 0.9% Saline, 4.5% HPBCD, and 45% HPBCD (the HPBCD is Type B of Example 3). Each solution was applied to the eye of a New Zealand white rabbit and observed for a period of one hour. The anterior chamber of the eye was examined with a standard blue light source on a slit lamp biomicroscope.

[6] = tested on: intraocular pressure of the normal rabbit eye; conditions: topical, Silvestrini; cited from earlier work
[7] = Maximum solubility of acetazolamide with commercial HPBCD preparations (Example 3); format: physicochemical
Description: The solubility of the active agent can be determined by any of the conventional methods available. For example, solutions of the agent, prepared with and without a β-cyclodextrin derivative, can be filtered (e.g., using a 0.22 or 0.45 μm membrane filter) to eliminate undissolved agent, and subjected to chromatography (e.g., reverse-phase HPLC) to determine the concentration of agent present in the solution.
In order to assess the efficiency of 3 different commercially available preparations of HPBCD, the maximum solubility of acetazolamide (maximum solubility in water: 0.1%) was determined for each. The three sources of HPBCD were (A) Roquette (RE No. 446601), (B) American Maize ("Encapsin"), and (C) Wacker Chemical (BetaW7, HP0.9).

[8] = Maximum solubility and guest/host molar ratios in 45% hydroxypropyl-β-cyclodextrin (Example 6); format: physicochemical; conditions: source C (Wacker)
[9] = Palmitic acid in centrifuged fractions of 2-hydroxypropyl-β-cyclodextrin solution in D2O, by GLC (Example 7); format: physicochemical; conditions: Wacker HPBCD in D2O, 100,000× g 3 hours
Experimental: 2.25 g of Wacker 2-hydroxypropyl-β-cyclodextrin (Source C of Example 3) was dissolved in D2 O to give a final volume of 5.0 ml. 100 mg of palmitic acid was added to the solution and the mixture placed in an ultrasonic water bath at 60° C. for several hours, after which it was brought to room temperature and filtered through an 0.22 mμ millipore filter to obtain a clear solution. 3.0 ml of the solution was centrifuged at 100,000× g for 3 hours in a Beckman TL-100 centrifuge. Following centrifugation, aliquots of approximately 1.0 ml were removed from the tube to give upper, middle and lower fractions. A 0.1 ml aliquot from each fraction was pipetted into a tube and 1 mg of cholesterol added as an internal standard. Each tube was then partitioned between ethyl acetate and water to extract all of the palmitic acid and internal standard. The amount of palmitic acid in each aliquot was then determined by GLC using a flame detector.

intraocular pressure [10] = assay: Intraocular pressure after 1% methazolamide in 45% HPBCD, applanation tonometry (Example 5); format: in vivo, New Zealand white rabbits; conditions: dissolved in HPBCD
Experimental: Solutions of 1% methazolamide in 45% HPBCD and the HPBCD alone (control) were applied to paired right and left eyes of New Zealand white rabbits. Intraocular pressure was measured by applanation tonometry until pressures returned to baseline.

[11] = source A (Roquette), read-out: maximum solubility
[12] = source B (A. Maize), read-out: maximum solubility

SMILES: C[C@@H](CO)CCC[C@@H](C)[C@H]1CC[C@H]2[C@@H]3CC=C4C[C@@H](O)CC[C@]4(C)[C@H]3CC[C@]12C [26-hydroxy cholesterol]
guest/host molar ratio [1]: .16 | solubility ([1]; maximum solubility): 20000 µg/mL

SMILES: CNC[C@H](O)c1ccc(O)c(O)c1 [epinephrine]
sensitivity developed by patients ([2]; topical, used for a year or longer): frequently develop sensitivity

SMILES: CC(=O)Nc1nnc(S(N)(=O)=O)s1 [Na-acetazolamide]
lowering of intraocular pressure (intraocular pressure [3]): only a transient, non-statistically significant lowering of intraocular pressure

SMILES: CCN[C@H]1C[C@H](C)S(=O)(=O)c2sc(S(N)(=O)=O)cc21 [L-671152]
ocular bioavailability compared to inhibitor administered alone [4]: about 50%

fluorescence seen in the eye [5]: considerable fluorescence
SMILES: O=C1OC2(c3ccc(O)cc3Oc3cc(O)ccc32)c2ccccc21 [Na-Fluorescein]

SMILES: CC(=O)Nc1nnc(S(N)(=O)=O)s1 [disodium salts of acetazolamide]
lowering of intraocular pressure [6]: can be used to lower the intraocular pressure of the normal rabbit eye

SMILES: CC(=O)Nc1nnc(S(N)(=O)=O)s1 [acetazolamide]
solubility ([7]; hpbcd solution, HPBCD source A, Roquette (RE No. 446601), read-out: maximum solubility): 1000 µg/mL (≈ 4.5 mM) | solubility ([7]; hpbcd solution, HPBCD source B, American Maize ("Encapsin"), read-out: maximum solubility): 10000 µg/mL (≈ 45 mM) | solubility ([7]; hpbcd solution, HPBCD source C, Wacker Chemical (BetaW7, HP0.9), read-out: maximum solubility): 18000 µg/mL (≈ 81 mM) | solubility ([7]; water, read-out: maximum solubility in water): 1000 µg/mL (≈ 4.5 mM) | guest/host molar ratio ([1]; 45% HPBCD, source B (A. Maize)): 0.31 | solubility [1, 11]: > 5000 µg/mL | solubility [1, 12]: 20000 µg/mL | guest/host molar ratio ([8]; 45% HPBCD): 0.31 | solubility ([8]; 45% hpbcd): 20000 µg/mL

Palmitic acid in fraction ([9]; Lower fraction): 23.4 μg/0.1 ml | Palmitic acid in fraction ([9]; Middle fraction): 34.0 μg/0.1 ml | Palmitic acid in fraction ([9]; Upper fraction): 41.0 μg/0.1 ml
SMILES: CCCCCCCCCCCCCCCC(=O)O [Palmitic acid, palmitic acid]

SMILES: CNCC(O)c1ccc(OC(=O)C(C)(C)C)c(OC(=O)C(C)(C)C)c1 (centres unmarked) [dipiviphrine]
sensitivity developed by patients ([2]; human, in vivo): frequently develop sensitivity

SMILES: CC(=O)/N=c1/sc(S(N)(=O)=O)nn1C [methazolamide]
duration of effect relative to acetazolamide (intraocular pressure [10]): longer duration of effect than does acetazolamide | potency relative to acetazolamide (intraocular pressure [10]): more potent

SMILES: CC(C)CCC[C@@H](C)[C@H]1CC[C@H]2[C@@H]3CC=C4C[C@@H](O)CC[C@]4(C)[C@H]3CC[C@]12C [Cholesterol, cholesterol]
guest/host molar ratio ([1]; 45% HPBCD, source A (Roquette)): .0015 | guest/host molar ratio ([1]; 45% HPBCD, source B (A. Maize)): .038 | solubility [1, 11]: 80 µg/mL | solubility [1, 12]: 4300 µg/mL
